Values joined by “and” are separate entries in the source; they are usually repeats but may differ in a detail not shown here. Identical values can stand only once.
How the values were obtained:
endogenous GSTO1 = molecular target: T1, endogenous GSTO1 (Homo sapiens, UniProt P78417); test: In-gel fluorescence competitive CMFDA binding assay, endogenous GSTO1 in HCT116; settings: 10 µM; inhibition of CMFDA binding, HCT116
T1 sequence (P78417 1-241): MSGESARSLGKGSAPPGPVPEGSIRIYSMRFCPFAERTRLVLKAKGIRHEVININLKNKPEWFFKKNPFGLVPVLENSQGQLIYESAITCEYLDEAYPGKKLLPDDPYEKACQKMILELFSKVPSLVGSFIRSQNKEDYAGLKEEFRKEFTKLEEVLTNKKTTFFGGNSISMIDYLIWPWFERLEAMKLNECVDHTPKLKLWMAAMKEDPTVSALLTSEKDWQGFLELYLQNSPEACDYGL
Description: (§1) Primary screening of GSTO inhibitors was based on competitive inhibition of CMFDA binding to endogenous GSTO. Briefly, HCT116^p53+/+ cells (4 × 10^4 per well) were coated in a 12-well plate. […] Cells were then washed with PBS and lysed using Cell Lytic M buffer (Sigma). […] Gels were immediately scanned on a Typhoon variable mode imager (Amersham Bioscience). Quantification of fluorescent band intensity was done using Image Quant 5.2 software.

GSTO1 [1] = molecular target: T2, GSTO1 (Homo sapiens, UniProt P78417); test: In-gel fluorescence competitive CMFDA binding assay, recombinant GSTO1; settings: inhibition of CMFDA binding
T2 sequence (P78417 1-241): T1 sequence (P78417 1-241)
Description: as §1

HCT116p53+/+ cell = test: MTT cell proliferation at single concentration; assay type: cell-based, human
Description: Cell proliferation was assessed by a MTT assay. Cancer cells were seeded in 96-well microtitre plates and, after overnight attachment, treated with GSTO1 inhibitors. After 72 h, MTT solution (3 mg ml^−1; 20 μl) was added to each well and cells were incubated for 3 h at 37 °C. After incubation, media from each well was removed and the dark blue formazan crystals formed by live cells were dissolved in DMSO (150 μl per well). The absorbance intensity was measured at 570 nm on a microplate reader (Molecular Devices, Sunnyvale, CA, USA). Cell viability after 24 h treatment was assessed using ApoTox-Glo triplex assay (Promega) according to the manufacturer's protocol. At least three independent dose–response experiments with each concentration tested in triplicate were performed for each cell line.

GSTO1 [2] = molecular target: T2, GSTO1; test: GSTO1 substrate assay (reduction of 4-NPG); settings: 10 µM
Description: For activity screening, we adapted a GSTO1 substrate assay that relies on the quantification of the reduction of S-(4-nitrophenacyl)glutathione (4-NPG), a GSTO1-specific substrate[17], using recombinant human GSTO1 in a high-throughput screening format.
Enzyme activity was measured by monitoring the reduction of 4-NPG to 4-nitroacetophenone by GSTO1.

SMILES	GSTO binding assay (% Inhibition at 10 µM) Endogenous (endogenous GSTO1) [%]	GSTO binding assay (% Inhibition at 10 µM) Recombinant (GSTO1 [1]) [%]	% Inhibition of HCT116p53+/+ cell proliferation at 10 µM (HCT116p53+/+ cell)	GSTO substrate assay % Inhibition at 10 µM (GSTO1 [2]) [%]
CN(C)C(CNC(=O)CCl)c1ccccc1 (centres unmarked) [C3-12]	9.7	22.0	5%	83.2
CCN1CCC(NC(=O)CCl)CC1 [C2-1]	45.0	-0.8	65.6% and 62.7%	54.8
CC(C)C(NC(=O)CCl)c1cccs1 (centres unmarked) [C3-28]	44.1	15.1	48.5% and 48.7%	42.0
CN(C1CCCCC1)S(=O)(=O)c1ccc(NC(=O)CCl)cc1 [C1-25]		70.3	11.3% and 21.7%	9.8
O=C(CCl)NNc1c(Cl)cc(Cl)cc1Cl [C3-17]	39.3	57.6	7.4%	61.9
O=C(CCl)NCCC12CC3CC(CC(C3)C1)C2 [C3-34]	41.7	50.9	-2.4%	78.6
O=C(CCl)NNC(=O)c1cc2c(s1)CCCC2 [C3-23]	-11.7	-4.1	3.7%	-3.5
NC(=O)CCN(Cc1ccccc1)C(=O)CCl [C4-14]	56.8	45.2	70.3% and 75%	89.1
CC(NC(=O)CCl)c1ccc2c(c1)OCO2 (centres unmarked) [C3-7]	12.6	12.3	73.6%	12.5
CC(NC(=O)CCl)c1cc2ccccc2o1 (centres unmarked) [C3-29]	88.9	46.7	89.7%	73.0
O=C(CCl)NCC1COc2ccccc2O1 (centres unmarked) [C3-9]	53.9	30.7	24.9%	80.7
O=C(CCl)Nc1ccccc1N1CCCC1=O [C1-18]	54.4	6.4	41.5% and 41.7%	3.7
O=C(CCl)N1N=C(c2cccs2)CC1c1ccco1 (centres unmarked) [C5-22]	22.7	68.6	41.2%	1.0
CCOC(=O)c1c(NC(=O)CCl)sc(C(=O)Nc2ccc(C)cc2C)c1C [C2-14]	58.2	57.9	6.3%	-7.0
CN(CC(=O)Nc1c(Cl)cccc1Cl)C(=O)CCl [C4-7]	53.0	-36.4	81.8%	1.8
